# Measured values from the supplement of paper PMC10307832.
# Experiments:
# Test in all cases: relative viability (nuclei count vs DMSO), 5 days (fraction); higher = more cells survive
# MLN4924 + Trametinib = compound: NS(=O)(=O)OC[C@@H]1C[C@@H](n2ccc3c(N[C@H]4CCc5ccccc54)ncnc32)C[C@@H]1O [MLN4924] + CC(=O)Nc1cccc(-n2c(=O)n(C3CC3)c(=O)c3c(Nc4ccc(I)cc4F)n(C)c(=O)c(C)c32)c1 [Trametinib] (partner 0.02 µM)
# Method in brief: (§1)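 Medians of duplicate plates are given as relative viability. That measure is the nuclei count in treated wells divided by the count in vehicle wells. Counts were taken on 4× images of lung cancer cell lines in 1536-well plates, 5 days after pin-tool dosing the day after seeding with one drug alone or a fixed anchor-drug dose plus five library-drug doses (not always all listed) in √10 steps.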
# Carboplatin + Navitoclax = compound: C1CC(C1)(C(=O)O)C(=O)O.[NH2-].[NH2-].[Pt+2] [Carboplatin] + CC1(C)CCC(c2ccc(Cl)cc2)=C(CN2CCN(c3ccc(C(=O)NS(=O)(=O)c4ccc(N[C@H](CCN5CCOCC5)CSc5ccccc5)c(S(=O)(=O)C(F)(F)F)c4)cc3)CC2)C1 [Navitoclax] (partner 0.5 µM)
# Method in brief: as §1
# GSK126 + OSI-027 = compound: CC[C@H](C)N1C=C(C2=C(C=C(C=C21)C3=CN=C(C=C3)N4CCNCC4)C(=O)NCC5=C(C=C(NC5=O)C)C)C [GSK126] + COc1cccc2cc(-c3nc([C@H]4CC[C@H](C(=O)O)CC4)n4ncnc(N)c34)[nH]c12 [OSI-027] (partner 0.5 µM)
# Method in brief: as §1
# MLN4924 + Linsitinib = compound: NS(=O)(=O)OC[C@@H]1C[C@@H](n2ccc3c(N[C@H]4CCc5ccccc54)ncnc32)C[C@@H]1O [MLN4924] + C[C@]1(O)C[C@@H](c2nc(-c3ccc4ccc(-c5ccccc5)nc4c3)c3c(N)nccn32)C1 [Linsitinib] (partner 1 µM)
# Method in brief: as §1
Cell Line,relative viability (MLN4924 + Trametinib; first compound 0.04 µM),relative viability (MLN4924 + Trametinib; first compound 0.1265 µM),relative viability (MLN4924 + Trametinib; first compound 0.4 µM),relative viability (MLN4924 + Trametinib; first compound 1.265 µM),relative viability (MLN4924 + Trametinib; first compound 4 µM),relative viability (Carboplatin + Navitoclax; first compound 0.08 µM),relative viability (Carboplatin + Navitoclax; first compound 0.253 µM),relative viability (Carboplatin + Navitoclax; first compound 0.8 µM),relative viability (Carboplatin + Navitoclax; first compound 2.53 µM),relative viability (Carboplatin + Navitoclax; first compound 8 µM),relative viability (GSK126 + OSI-027; first compound 0.08 µM),relative viability (GSK126 + OSI-027; first compound 0.253 µM),relative viability (GSK126 + OSI-027; first compound 0.8 µM),relative viability (GSK126 + OSI-027; first compound 2.53 µM),relative viability (GSK126 + OSI-027; first compound 8 µM),relative viability (MLN4924 + Linsitinib; first compound 0.04 µM),relative viability (MLN4924 + Linsitinib; first compound 0.1265 µM),relative viability (MLN4924 + Linsitinib; first compound 0.4 µM),relative viability (MLN4924 + Linsitinib; first compound 1.265 µM),relative viability (MLN4924 + Linsitinib; first compound 4 µM)
HOP-62,0.432,0.567,0.369,0.103,0.0823,1.04,1.08,0.789,0.902,0.748,0.888,0.845,0.869,0.867,0.798,0.433,0.272,0.151,0.0627,0.0635
NCI-H727,0.442,0.454,0.403,0.358,0.365,0.487,0.393,0.426,0.441,0.324,0.653,0.686,0.599,0.603,0.627,0.402,0.169,0.234,0.21,0.24
COR-L 105,0.433,0.417,0.422,0.3,0.339,0.66,0.809,0.595,0.822,0.531,0.694,0.666,0.616,0.72,0.771,0.8,0.615,0.424,0.283,0.231
NCI-H358,0.167,0.137,0.138,0.115,0.0882,,,,,,1,0.85,0.812,0.904,0.897,0.918,1.06,0.304,0.183,0.181
SK-MES-1,0.631,0.676,0.727,0.295,0.255,1.13,1.3,1.2,1.21,1.16,0.626,0.649,0.637,0.654,0.712,0.976,0.825,0.35,0.215,0.207
LC-2-ad,0.95,0.827,0.701,0.541,0.305,0.37,0.49,0.422,0.436,0.326,1.02,0.868,0.902,0.862,0.985,0.854,0.533,0.281,0.162,0.13
H3255,0.591,0.53,0.409,0.304,0.306,0.658,0.563,0.634,0.471,0.476,0.573,0.568,0.578,0.666,0.583,0.927,0.593,0.354,0.201,0.257
